The record followed here is US4672117A, “Antipsychotic gamma-carbolines” (American Home Products Corporation, priority 1985, dated 1987).

Data set [1] has as its target T1, limbic D-2 dopamine receptor (Rattus norvegicus, UniProt P61169).
T1 construct: from tissue
Kind of data set: limbic D-2 binding, 3H-spiroperidol, homogenized limbic brain tissue. As to conditions: 95% confidence interval in brackets, read-out: Limbic D-2 inhibition constant (Ki). On the procedure: Binding in the presence of the test compound is expressed as a percent of specific binding (total binding less binding in the presence of 1 μM (+)butaclamol). An inhibition constant (Ki) is calculated for each test compound to categorize its limbic D-2 binding potential. The larger the number, the less potential for dopamine receptor binding and attendant side effects from administration of the antipsychotic agent.
(§1) The following examples illustrate the production of compounds of this invention. After each example the pharmacological evaluation for the compound produced is presented. The conditioned avoidance tests are reported as relative activity for the shelf-jump (S-J) at the intraperitoneal (i.p.) dose administered in mg/kg and the AB50 is presented for the lever-response (L-R) test at the oral (p.o.) dose in mg/kg. The inhibition constant is reported for limbic D-2 binding expressed in nM concentration.

For data set [2], the system named is male CD rats. Kind of data set: conditioned avoidance, shelf-jump response (S-J). The format is in vivo. As to conditions: rat.
Text: (§2) The antipsychotic properties of the compounds of this invention were established by standard pharmacologically accepted procedures involving two conditioned avoidance studies in which trained male CD rats (Charles River), 400-450 gm body weight are exposed to a fifteen second warning tone (conditioned stimulus) continued for an additional fifteen seconds accompanied by electric shock. The rat can avoid the electric shock by depression of a response lever (lever-response) or in a different study by jumping to an exposed shelf (shelf-jump response). In either test situation, a response during the initial warning tone is considered an avoidance response while a response during shock delivery is considered an escape response. The avoidance response is determined and expressed as a percentage of total trials from an appropriate number of trials and a 50% block in avoidance responding (AB50) is obtained from a dose-effect regression line. All the data is based upon (mg/kg) dosing of the animals. The shelf-jump response test procedure follows that of Herman et al., Comm. in Psychopharm., 3, pp. 165-171 (1979).
as §1

Data set [3] relates to male CD rats. As to the kind of experiment: conditioned avoidance, lever-response (L-R). As to conditions: rat; for L-R relative activity: lever-response conditioned avoidance; for ED50: po, lever-response, p.o., interval in brackets, read-out: L-R AB50 (50% block in avoidance responding). Type of data set: in vivo.
Text: as §2, §1

The nature of data set [4]: antagonism of apomorphine-induced stereotyped behavior. As to conditions: mouse, in vivo, ip, CF-1 mice, 10 mg/kg apomorphine s.c. 30 min later; measure of extrapyramidal side effects; read-out: ED50 for inhibition of apomorphine-induced stereotyped behavior.

T1 sequence (P61169 whole entry): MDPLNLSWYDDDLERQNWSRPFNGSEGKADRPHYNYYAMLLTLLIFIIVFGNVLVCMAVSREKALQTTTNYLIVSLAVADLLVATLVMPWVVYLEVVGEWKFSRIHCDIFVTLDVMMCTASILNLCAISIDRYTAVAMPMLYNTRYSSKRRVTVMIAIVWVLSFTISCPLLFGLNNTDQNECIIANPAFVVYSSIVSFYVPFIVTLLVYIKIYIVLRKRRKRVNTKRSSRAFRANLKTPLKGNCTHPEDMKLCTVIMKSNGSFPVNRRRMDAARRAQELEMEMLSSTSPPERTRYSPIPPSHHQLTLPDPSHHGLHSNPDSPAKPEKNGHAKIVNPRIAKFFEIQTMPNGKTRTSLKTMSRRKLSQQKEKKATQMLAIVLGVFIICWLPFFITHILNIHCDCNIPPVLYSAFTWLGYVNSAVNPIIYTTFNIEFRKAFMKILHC

Regarding `c1ccc(C2CN(CCc3ccccn3)Cc3c2[nH]c2ccccc32)cc1` (stereo not drawn) [Example 4, 2,3,4,5-Tetrahydro-4-phenyl-2-[2-(2-pyridinyl)ethyl]-1H-pyrido[4,3-b]indole], in data set [1], the inhibition constant Ki turned out to be 0.6 µM.

`Fc1ccc(-n2c3c(c4cc(F)ccc42)CN(CCc2ccncc2)CC3)cc1` [Example 7, 8-Fluoro-5-(4-fluorophenyl)-2,3,4,5-tetrahydro-2-[2-(4-pyridinyl)ethyl]-1H-pyrido[4,3-b]indole]: the S-J relative activity entry in the data set with male CD rats [2] (40 mg/kg i.p.) is on record as “Active”. For the same compound, the Ki in data set [1] came to 0.012 µM.

`Fc1ccc(-n2c3c(c4cc(F)ccc42)CN(CCc2ccc4ccccc4n2)CC3)cc1` [Example 5, 8-Fluoro-5-(4-fluorophenyl)-2,3,4,5-tetrahydro-2-[2-(2-quinolinyl)ethyl]-1H-pyrido[4,3-b]indole]: the S-J relative activity entry with male CD rats [2] (40 mg/kg i.p.) is reported as “Active”. The L-R relative activity result with male CD rats [3] (40 mg/kg p.o.) is on record as “Active”. Besides, the ED50 in data set [4] is 1.62 mg/kg. For the same compound, the inhibitory constant (Ki) in data set [1] stood at 0.00107 µM.

As to `c1ccc(C2CN(CCCCc3ccncc3)Cc3c2[nH]c2ccccc32)cc1` (stereo not drawn) [Example 2, 2,3,4,5-Tetrahydro-4-phenyl-2-[4-(4-pyridinyl)butyl]-1H-pyrido[4,3-b]indole], the S-J relative activity result in the data set on male CD rats [2] (20 mg/kg i.p.) is listed as “Very weak”. Besides, the inhibition constant (Ki) in data set [1] was found to be 0.404 µM.

For `Fc1ccc(-n2c3c(c4cc(F)ccc42)CN(CCc2cnccn2)CC3)cc1` [Example 8, 8-Fluoro-5-(4-fluorophenyl)-2,3,4,5-tetrahydro-2-[2-(2-pyrazinyl)ethyl]-1H-pyrido[4,3-b]indole], the S-J relative activity result with male CD rats [2] (40 mg/kg i.p.) is reported as “Very Active”. Also, the L-R relative activity entry in the data set on male CD rats [3] (20 mg/kg p.o.) is reported as “Active”. Besides, in the data set on male CD rats [3], the ED50 is 15.2 mg/kg.

Consider `c1ccc(C2CN(CCCc3cccnc3)Cc3c2[nH]c2ccccc32)cc1` (stereo not drawn) [Example 3, 2,3,4,5-Tetrahydro-4-phenyl-2-[3-(3-pyridinyl)propyl]-1H-pyrido[4,3-b]indole], for which, in data set [1], the inhibitory constant (Ki) is 0.14 µM.

Take `Fc1ccc(-n2c3c(c4cc(F)ccc42)CN(CCCCc2ccccn2)CC3)cc1` [Example 6, 8-Fluoro-5-(4-fluorophenyl)-2,3,4,5-tetrahydro-2-[4-(2-pyridinyl)butyl]-2H-pyrido[4,3-b]indole]: the S-J relative activity result with male CD rats [2] (40 mg/kg i.p.) is listed as “Active”.

For the compound `Fc1ccc(-n2c3c(c4cc(F)ccc42)CN(CCc2ccccn2)CC3)cc1` [Example 1, 8-Fluoro-5-(4-fluorophenyl)-2,3,4,5-tetrahydro-2-[2-(2-pyridinyl)ethyl]-1H-pyrido[4,3-b]indole], in the data set on male CD rats [2] (20 mg/kg i.p.), the S-J relative activity entry was “Active”. Moreover, the L-R relative activity entry in the data set with male CD rats [3] (20 mg/kg p.o.) is on record as “Active”. The ED50 in the data set on male CD rats [3] was 6.3 mg/kg. Further, the Ki in data set [1] is 0.007 µM.
